Where two headings read alike, the source gives them in different places. Values belong to the compound of their own block, whether it stands above or below them.
Columns and labels:
[1] = biological target: recombinant human caseinolytic peptidase hClpP (Homo sapiens, UniProt Q16740); test: hClpP peptide hydrolysis assay (Ac-WLA-AMC); conditions: for Time course of hClpP activity: 1 uM, Protocol 2; for Dose-dependency of hClpP activation: Protocol 2, purified hClpP, Ac-WLA-AMC
Protocol: Briefly, the activity of recombinant hClpP proteolytic subunit (1 μg/mL) was measured in the assay buffer composed of 50 mM Tris, 10 mM MgCl2, 100 mM KCl, 1 mM DTT, 4 mM ATP, 0.02% Triton X-100 and 5% Glycerol, pH 8.0 (HCl) using 10 µM of fluorogenic Ac-WLA-AMC substrate as described in references above. […] Using the first protocol (Protocol 1), the reaction was initiated by immediately mixing enzyme and substrate in the presence of indicated doses of compounds. Applying a second protocol (Protocol 2), the enzyme and compounds were mixed and incubated in assay buffer for 60 min before initiating the reaction by adding Ac-WLA-ACM substrate.
Enzymatic activity of hClpP was measured in assay buffer (as described in Experimental Procedure/Materials and Methods) and the level of fluorescence of liberated coumarin monitored continuously.

[2] = test system: HCT116 (human colon cancer); test: Cancer cell viability, CCK-8, HCT116; assay type: cell-based; conditions: for EC50: read-out: EC50 (uM, HCT116); for IC50: read-out: IC50 (uM, HCT116)
Protocol: (§1) Cancer cell lines. […] The plate is incubated for 48 hours.
(§2) CCK-8 solution is added directly to the cells.

[3] = test system: MDA-MB-231 (MDA 231, human breast adenocarcinoma); test: Cancer cell viability, CCK-8, MDA-MB-231; assay type: cell-based; conditions: for EC50: read-out: EC50 (uM, MDA 231); for IC50: read-out: IC50 (uM, MDA 231)
Protocol: as §1, §2

ClpX and TUFM = ClpX and TUFM Western blots in SUM159 cells (FIG. 5); conditions: concentration response and time course
[4] = Homo sapiens, HCT-116, 48 h, HCT116, 48 hours, CCK-8
[5] = Homo sapiens, MDA-MB-231, MDA 231, 48 hours, CCK-8

Chain of recombinant human caseinolytic peptidase hClpP (Q16740 57-277): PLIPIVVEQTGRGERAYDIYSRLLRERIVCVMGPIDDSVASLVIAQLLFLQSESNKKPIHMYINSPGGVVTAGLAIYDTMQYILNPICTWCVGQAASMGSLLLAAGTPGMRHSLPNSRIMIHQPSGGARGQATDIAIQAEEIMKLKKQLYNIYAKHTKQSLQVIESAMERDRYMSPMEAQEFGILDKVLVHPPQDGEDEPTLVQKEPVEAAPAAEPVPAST

Structure (SMILES): Cc1ccccc1CN1C(=O)C2=C(CCN(Cc3ccccc3)C2)N2CCN=C12 [ONC201, reference compound]
EC50 ([3]; Homo sapiens, MDA-MB-231, 48 h): 3 µM | IC50 ([3]; Homo sapiens, MDA-MB-231, 48 h): 3 µM | EC50 ([2]; Homo sapiens, HCT-116, 48 h): 2.8 µM | IC50 ([2]; Homo sapiens, HCT-116, 48 h): 2.8 µM | ClpX and TUFM protein level (ClpX and TUFM): reduction of the protein ClpX and TUFM

Structure (SMILES): N#Cc1cccc(CC2CCC3=C(C2)C(=O)N(Cc2ccc(C(F)(F)F)cc2)C2=NCCN23)c1 (stereo not shown) [Ex. 67, 3-[(5-oxo-4-{[4-(trifluoromethyl)phenyl]methyl}-1H,2H,4H,5H,6H,7H,8H,9H-imidazo[1,2-a]quinazolin-7-yl)methyl]benzonitrile]
Dose-dependency of hClpP activation [1]: Dose-dependent increases in hClpP activity | EC50 [2, 4]: 1.2 µM

Structure (SMILES): Cn1c2c(c(=O)n(Cc3cccc(C(F)(F)F)c3)c1=O)CN(Cc1ccccc1)CC2 [Example 39]
EC50 [3, 5]: 1.1 µM | EC50 [2, 4]: 1.4 µM

Structure (SMILES): N#Cc1cccc(CN2CCC3=C(C2)C(=O)N(Cc2ccc(C(F)(F)F)cc2)C2=NCCCN23)c1 [Ex. 62, 3-[(8-oxo-9-{[4-(trifluoromethyl)phenyl]methyl}-1,5,9,11-tetraazatricyclo[8.4.0.0^2,7]tetradeca-2(7),10-dien-5-yl)methyl]benzonitrile]
Dose-dependency of hClpP activation [1]: Dose-dependent increases in hClpP activity | EC50 [3, 5]: 0.021 µM | EC50 [2, 4]: 0.022 µM

Structure (SMILES): N#Cc1cccc(CN2CC3=C(C2)N2CCN=C2N(Cc2ccc(Cl)cc2)C3=O)c1 [Ex. 66]
Dose-dependency of hClpP activation [1]: Dose-dependent increases in hClpP activity | EC50 [2, 4]: 0.0055 µM

Structure (SMILES): O=C1C2=C(CCN(Cc3cccc(OC(F)(F)F)c3)C2)N2CCN=C2N1Cc1ccc(C(F)(F)F)cc1 [Example 3]
IC50 ([3]; MDA 231, 48 hours, CCK-8): 0.27 µM | IC50 ([2]; HCT116, 48 hours, CCK-8): 0.36 µM

Structure (SMILES): N#Cc1cccc(Cc2nnc(C(=O)NCc3ccc(Cl)cc3)o2)c1 [Example 63, N-[(4-chlorophenyl)methyl]-5-[(3-cyanophenyl)methyl]-1,3,4-oxadiazole-2-carboxamide]
EC50 [3, 5]: 5 µM | EC50 [2, 4]: 4 µM

Structure (SMILES): Cn1c2c(c(=O)n(Cc3ccc(C(F)(F)F)cc3)c1=O)CN(Cc1cccc(Cl)c1)CC2 [Example 56]
EC50 ([3]; MDA 231, 48 hours, CCK-8): 0.29 µM | EC50 ([2]; HCT116, 48 hours, CCK-8): 0.098 µM

Structure (SMILES): N#Cc1cccc(CN2CCc3c(c(=O)n(Cc4ccc(C(F)(F)F)cc4)c(=O)n3CCCCN)C2)c1 [Example 58, 3-((1-(4-aminobutyl)-2,4-dioxo-3-(4-(trifluoromethyl)benzyl)-1,2,3,4,7,8-hexahydropyrido[4,3-d]pyrimidin-6 (5H)-yl)methyl)benzonitrile]
EC50 [2, 4]: 0.23 µM

Structure (SMILES): O=C1C2=C(CCN(Cc3cccc(Cl)c3)C2)N2CCN=C2N1Cc1ccc(C(F)(F)F)cc1 [Example 27]
IC50 [3, 5]: 0.016 µM | IC50 [2, 4]: 0.016 µM

Structure (SMILES): N#Cc1ccc(CN2CCC3=C(C2)C(=O)N(Cc2ccc(Cl)cc2)C2=NCCN23)cc1 [Example 22]
IC50 [3, 5]: 3.4 µM | IC50 [2, 4]: 1.8 µM

Structure (SMILES): N#Cc1cccc(CC2CCC3=C(C2)C(=O)N(Cc2ccc(Cl)cc2)C2=NCCN23)c1 (stereo not shown) [Ex. 68, 3-({4-[(4-chlorophenyl)methyl]-5-oxo-1H,2H,4H,5H,6H,7H,8H,9H-imidazo[1,2-a]quinazolin-7-yl}methyl)benzonitrile]
Dose-dependency of hClpP activation [1]: Dose-dependent increases in hClpP activity | EC50 [2, 4]: 1.5 µM

Structure (SMILES): O=C(NCc1ccc2c(c1)OCO2)c1nnc(Cc2ccc(F)cc2Cl)o1 [Ex. 1, reference compound]
Dose-dependency of hClpP activation [1]: dose-dependent increases in hClpP activity

Structure (SMILES): Cc1nc2c(c(=O)n1Cc1ccc(Cl)cc1)CN(Cc1cccc(C#N)c1)CC2 [Example 61, 3-({3-[(4-chlorophenyl)methyl]-2-methyl-4-oxo-3H,4H,5H,6H,7H,8H-pyrimidin-6-yl}methyl)benzonitrile]
EC50 [3, 5]: 0.096 µM | EC50 [2, 4]: 0.097 µM

Now from value to compound, other results behind:

EC50 [2, 4]: 0.011 µM
Structure (SMILES): O=C1C2=C(CN(Cc3ccccc3)C2)N2CCN=C2N1Cc1ccc(Cl)cc1 [Example 80, 4-benzyl-8-[(4-chlorophenyl)methyl]1,4,8,10-tetraazatricyclo[7.3.0.0^2,6]dodeca-2 (6),9-diene-7-one]
Time course of hClpP activity [1]: time-dependent increase in hClpP activity

EC50 [2, 4]: 0.098 µM
Structure (SMILES): N#Cc1cccc(CN2CCc3ncn(Cc4ccc(C(F)(F)F)cc4)c(=O)c3C2)c1 [Example 75, 3-[(4-oxo-3-{[4-(trifluoromethyl)phenyl]methyl}-3H,4H,5H,6H,7H,8H-pyrido[4,3-d]pyrimidin-6-yl)methyl]benzonitrile]

EC50 [2, 4]: 10.5 µM
Structure (SMILES): O=C1CCc2ccc(CN3CCC4=C(C3)C(=O)N(Cc3ccc(Cl)cc3)C3=NCCN34)cc21 [Example 64, 7-[(4-chlorophenyl)methyl]-11-[(3-oxo-2,3-dihydro-1H-inden-5-yl)methyl]-2,5,7,11-tetraazatricyclo[7.4.0.0^2,6]trideca-1(9),5-dien-8-one]

EC50 [2, 4]: 0.244 µM
Structure (SMILES): N#Cc1cccc(CN2CCC3=C(C2)C(=O)N(Cc2ccc(Cl)cc2)C2=NCC(F)(F)CN23)c1 [Example 71, 3-({9-[(4-chlorophenyl)methyl]-13,13-difluoro-8-oxo-1,5,9,11-tetraazatricyclo[8.4.0.0^2,7]tetradeca-2 (7), 10-dien-5-yl}methyl)benzonitrile]

EC50 [2, 4]: 5.7 µM
Structure (SMILES): CC#Cc1cccc(CN2CCc3ncn(Cc4ccc(C(F)(F)F)cc4)c(=O)c3C2)c1 [Example 79]

EC50 [2, 4]: 0.003 µM
Structure (SMILES): N#Cc1cccc(CN2CC3=C(C2)N2CCN=C2N(Cc2ccc(Br)cc2)C3=O)c1 [Example 76, 3-({8-[(4-bromophenyl)methyl]-7-oxo-1,4,8,10-tetraazatricyclo[7.3.0.0^2,6}dodeca-2(6),9-dien-4-yl}methyl)benzonitrile]

EC50 [2, 4]: 5.2 µM
Structure (SMILES): CC#Cc1cccc(CN2CCc3ncn(Cc4ccc(Br)cc4)c(=O)c3C2)c1 [Example 78]

EC50 [2, 4]: 0.02 µM
Structure (SMILES): N#Cc1cccc(CN2CCc3ncn(Cc4ccc(Br)cc4)c(=O)c3C2)c1 [Example 74, 3-({3-[(4-bromophenyl)methyl]-4-oxo-3H,4H,5H,6H,7H,8H-pyrido[4,3-d]pyrimidin-6-yl}methyl)benzonitrile]

EC50 [2, 4]: 0.0021 µM
Structure (SMILES): N#Cc1cccc(CN2CC3=C(C2)N2CCN=C2N(Cc2ccc(C(F)(F)F)cc2)C3=O)c1 [Example 77, 3-[(7-oxo-8-{[4-(trifluoromethyl)phenyl]methyl}-1,4,8,10-tetraazatricyclo[7.3.0.0^2,6]dodeca-2 (6),9-dien-4-yl)methyl]benzonitrile]

EC50 [2, 4]: 0.077 µM
Structure (SMILES): Cc1nc2c(c(=O)n1Cc1ccc(Br)cc1)CN(Cc1cccc(C#N)c1)CC2 [Example 72, 3-({3-[(4-bromophenyl)methyl]-2-methyl-4-oxo-3H,4H,5H,6H,7H,8H-pyrido[4,3-d]pyrimidin-6-yl}methyl)benzonitrile]

EC50 [2, 4]: 0.097 µM
Structure (SMILES): Cc1nc2c(c(=O)n1Cc1ccc(Cl)cc1)CN(Cc1cccc(C#N)c1)C2 [Example 69, 3-({3-[(4-chlorophenyl)methyl]-2-methyl-4-oxo-3H,4H,5H,6H,7H-pyrrolo[3,4-d]pyrimidin-6-yl}methyl)benzonitrile]

EC50 [2, 4]: 0.01 µM
Structure (SMILES): O=C1C2=C(CN(Cc3ccccc3)C2)N2CCN=C2N1Cc1ccc(C(F)(F)F)cc1 [Example 82, 4-benzyl-8-{[4-(trifluoromethyl)phenyl]methyl}1,4,8,10-tetraazatricyclo[7.3.0.0^2,6]dodeca-2 (6), 9-diene-7-one]
Time course of hClpP activity [1]: time-dependent increase in hClpP activity

EC50 [2, 4]: 0.069 µM
Structure (SMILES): Cc1nc2c(c(=O)n1Cc1ccc(C(F)(F)F)cc1)CN(Cc1cccc(C#N)c1)CC2 [Example 73, 3-[(2-methyl-4-oxo-3-{[4-(trifluoromethyl)phenyl]methyl}-3H,4H,5H,6H,7H,8H-pyrido[4,3-d]pyrimidin-6-yl)methyl]benzonitrile]

EC50 [2, 4]: 0.013 µM
Structure (SMILES): N#Cc1cccc(CN2CCC3=C(C2)C(=O)N(Cc2ccc(Br)cc2)C2=NCCCN23)c1 [Example 84, 3-({9-[(4-bromophenyl)methyl]-8-oxo-1,5,9,11-tetraazatricyclo[8.4.0.0 ^2,7]tetradeca-2(7), 10-dien-5yl}methyl)benzonitrile]
Time course of hClpP activity [1]: time-dependent increase in hClpP activity

EC50 [2, 4]: 0.28 µM
Structure (SMILES): N#Cc1cccc(CN2CCC3=C(C2)C(=O)N(Cc2ccc(Cl)cc2)C2=NCCCN23)c1 [Example 83, 3-({9-[(4-chlorophenyl)methyl]-8-oxo-1,5,9,11-tetraazatricyclo[8.4.0.0 ^2,7]tetradeca-2(7), 10-dien-5yl}methyl)benzonitrile]
Time course of hClpP activity [1]: time-dependent increase in hClpP activity

EC50 [2, 4]: 1.4 µM
Structure (SMILES): CC1(C)CN=C2N(Cc3ccc(Cl)cc3)C(=O)C3=C(CCN(Cc4cccc(C#N)c4)C3)N2C1 [Example 70, 3-({9-[(4-chlorophenyl)methyl]-13,13-dimethyl-8-oxo-1,5,9,11-tetraazatricyclo[8.4.0.0^2,7]tetradeca-2 (7), 10-dien-5-yl}methyl)benzonitrile]

EC50 [2, 4]: 0.039 µM
Structure (SMILES): O=C1C2=C(CN(Cc3ccccc3)C2)N2CCN=C2N1Cc1ccc(Br)cc1 [Example 81, 4-benzyl-8-[(4-bromophenyl)methyl]1,4,8,10-tetraazatricyclo[7.3.0.0^2,6]dodeca-2 (6),9-diene-7-one]
Time course of hClpP activity [1]: time-dependent increase in hClpP activity

— patent publication US12692267B2 (Madera Therapeutics, LLC, priority 2019, dated 2026)
